Laboratory results: patent US20250170224A1, “METHODS AND COMPOSITIONS FOR TREATING MICROGLIAL DYSFUNCTION AND IMPROVING METABOLIC DYSFUNCTION” (Ultimate Medicine AG, priority 2021, published 2025)

System: microglia
Test: CML given intraperitoneally or by oral gavage to young-adult and aged SPF mice; microglia analysed
Format: in vivo, mouse
Protocol: Specific pathogen-free (SPF) and germ-free (GF) housed C57BL/6 mice were analyzed at 6-10 weeks of age (young-adult) and 96-104 weeks of age (aged). Mice of the aged group in the nontargeted metabolomics analysis were 17-18 months old. Except for nontargeted metabolomics and microbiota profiling, where only male mice were used, all groups included mice from both sexes. Mice were housed under a 12-hour light/12-hour dark cycle and temperatures of 18-23° C. with 40-60% humidity, with food and water given ad libitum. To avoid cage effects, mice from at least three different cages per experimental group were analyzed. […] For modulation of CML in aged animals, 18-month-old SPF housed C57BL/6 mice were treated orally every third day for 10 weeks with vehicle (20% hydroxypropyl-p-cyclodextrin in 1× phosphate-buffered saline (PBS)), 10 mg kg^−1 ellagic acid (EA) or 3,000 U kg^−1 intestinal alkaline phosphatase (IAP). To assess in vivo intestinal permeability, tracer fluorescein isothiocyanate (FITC)-labeled dextran (4 kDa: Sigma-Aldrich) was used. Briefly, mice were deprived of food 4 hours before and both food and water 4 hours after oral gavage using 200 μl of 80 mg ml^−1 FITC-dextran. Blood was collected retro-orbitally after 4 hours and fluorescence intensity was measured on fluorescence plates using an excitation wavelength of 493 nm and an emission wavelength of 518 nm. To assess in vivo intestinal permeability to CML, mice were treated with […] CML (0.36 mM). Blood was collected retro-orbitally immediately before and 4 hours after treatment. CML translocated into the circulation was measured by liquid chromatography-mass spectrometry (LC-MS). All animal experiments were approved by the local administration in Germany (Regierungsprasidium Freiburg) and were performed in accordance with the respective national, federal, and institutional regulations and the guidelines of the Federation of European Laboratory Animal Science Associations.
Brains were fixed in 4% PFA, dehydrated in 30% sucrose and embedded in Tissue-Tek OCT compound (Sakura Finetek). Fourteen micrometer-thick cryosections were obtained using a cryostat (SM2000R; Leica Biosystems). FFPE tissue from mouse and human brains was sectioned by a microtome to obtain 5-pm sections. Epitopes were unmasked by heat-induced antigen retrieval at pH 6. Sections were blocked with PBS containing 5% bovine serum albumin (BSA) and permeabilized with 0.5% Triton X-100 in blocking solution. The following primary antibodies were incubated overnight at 4° C.: rabbit anti-Iba-1 (1:500 dilution; WAKO); guinea pig anti-Iba-1 (1:1,000 dilution; Synaptic Systems); anti-iNOS (1:500 dilution; Thermo Fisher Scientific) or anti-CML (1:500; Abcam). Secondary antibodies (Alexa Fluor 488-, 568- or 647-conjugated, 1:500 dilution) were incubated for 2 hours at room temperature. For three dimensional (3D)-reconstruction of microglia, free-floating 30-pm cryosections from brain tissue were labeled for 48 hours with anti-Iba-1 (1:500 dilution) at 4° C., followed by Alexa Fluor 647-conjugated secondary antibody at a dilution of 1:500 overnight at 4° C. […] For 3D-reconstruction of microglia, images were analyzed using Imaris v.8.02 (Bitplane) with at least five cells per mouse. All other images were processed and analyzed with Photoshop CC 2015 (Adobe) or ImageJ v.1.53f (National Institutes of Health). […]

[1] = aged mice, both intraperitoneal and oral gavage routes

N[C@@H](CCCCNCC(=O)O)C(=O)O [CML, N^6-carboxymethyllysine]
cellular ROS in microglia [1]: significantly exacerbated the age-related increase in cellular ROS | metabolic function (cellular ATP) in microglia [1]: diminished metabolic function | effect of route of CML administration on percentage of CML+ microglia (aged mice, i.p. versus oral gavage): no effect | CML+ microglia in the cortex, intraperitoneal rather than oral gavage (young-adult mice): more CML^+ microglia in the cortex | effect on cellular ROS and metabolic function in microglia (young-adult mice, i.p. versus oral gavage): only detectable after intraperitoneal administration
